Results published in ChEMBL document CHEMBL1139218, “Cytotoxic benzo[j]fluoranthene metabolites from Hypoxylon truncatum IFB-18, an endophyte of Artemisia annua” (J Nat Prod, 2007).

experiment: Cytotoxicity against SW1116 cells by MTT colometric method; type: functional, cell-based; conditions: Homo sapiens, SW 1116

Compound	IC50 [µM]
O=C1C[C@H]2[C@@H]3CCC(=O)c4c(O)ccc(c43)[C@]2(O)c2cccc(O)c21 [DALDINONE C]	49.5
CO[C@H]1C[C@H]2[C@@H]3CCC(=O)c4c(O)ccc(c43)[C@]2(O)c2cccc(O)c21 [DALDINONE D]	41
O=c1[nH]cc(F)c(=O)[nH]1 [FLUOROURACIL]	37
